Data published in ChEMBL document CHEMBL5126514, “Molecular design of dual inhibitors of PI3K and potential molecular target of cancer for its treatment: A review” (Eur J Med Chem, 2022).
pIC50: −log10 of the molar value. One block for each compound: values may come before it.

Tests used:
[1] = target: T1, Phosphatidylinositol 4,5-bisphosphate 3-kinase catalytic subunit delta isoform (Homo sapiens, UniProt O00329); assay: Inhibition of PI3Kdelta (unknown origin)
T1 sequence (O00329 whole entry): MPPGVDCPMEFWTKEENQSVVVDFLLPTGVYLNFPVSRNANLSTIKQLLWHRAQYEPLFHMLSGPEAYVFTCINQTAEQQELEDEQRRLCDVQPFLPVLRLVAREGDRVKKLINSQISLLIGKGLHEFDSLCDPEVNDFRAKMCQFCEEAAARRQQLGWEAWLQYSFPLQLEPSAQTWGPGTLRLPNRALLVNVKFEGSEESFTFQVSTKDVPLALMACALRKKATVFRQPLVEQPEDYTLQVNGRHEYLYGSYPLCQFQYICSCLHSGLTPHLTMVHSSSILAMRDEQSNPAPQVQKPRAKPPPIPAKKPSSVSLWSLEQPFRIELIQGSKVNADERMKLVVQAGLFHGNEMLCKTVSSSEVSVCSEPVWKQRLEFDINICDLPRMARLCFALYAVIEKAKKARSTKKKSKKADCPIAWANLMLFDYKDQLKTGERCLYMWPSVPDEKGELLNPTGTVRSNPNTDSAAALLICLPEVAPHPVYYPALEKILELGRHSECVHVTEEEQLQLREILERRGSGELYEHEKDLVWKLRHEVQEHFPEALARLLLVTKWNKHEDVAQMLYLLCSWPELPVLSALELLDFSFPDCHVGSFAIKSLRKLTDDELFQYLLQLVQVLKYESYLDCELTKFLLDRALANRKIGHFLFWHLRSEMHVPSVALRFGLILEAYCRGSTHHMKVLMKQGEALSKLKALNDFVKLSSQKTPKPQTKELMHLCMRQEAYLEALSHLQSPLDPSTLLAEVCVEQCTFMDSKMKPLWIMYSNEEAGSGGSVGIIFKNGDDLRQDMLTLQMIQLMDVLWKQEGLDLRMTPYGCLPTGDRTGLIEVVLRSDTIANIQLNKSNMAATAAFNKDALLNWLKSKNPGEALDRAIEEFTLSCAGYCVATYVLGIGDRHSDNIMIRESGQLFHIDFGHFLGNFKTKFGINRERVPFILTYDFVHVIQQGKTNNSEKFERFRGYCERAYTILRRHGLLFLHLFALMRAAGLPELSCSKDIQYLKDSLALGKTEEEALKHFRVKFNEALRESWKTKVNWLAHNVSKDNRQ

KB = assay: Anticancer activity against human KB cells assessed as growth inhibition; assay type: functional, cell-based
[2] = Anticancer activity against human TU183 cells assessed as growth inhibition; assay type: functional, cell-based
[3] = target: T1, Phosphatidylinositol 4,5-bisphosphate 3-kinase catalytic subunit delta isoform; assay: Inhibition of PI3Kdelta (unknown origin) expressed in baculovirus expression system using L-alpha-phosphatidylinositol as substrate by luminescence assay
SCC-4 = assay: Anticancer activity against human SCC-4 cells assessed as growth inhibition; assay type: functional, cell-based
Histone deacetylase 1 = Histone deacetylase 1 (Homo sapiens, UniProt Q13547); assay: Inhibition of full-length HDAC1 (unknown origin) by Color-de-Lys assay
Sequence of Histone deacetylase 1 (Q13547 whole entry, canonical isoform): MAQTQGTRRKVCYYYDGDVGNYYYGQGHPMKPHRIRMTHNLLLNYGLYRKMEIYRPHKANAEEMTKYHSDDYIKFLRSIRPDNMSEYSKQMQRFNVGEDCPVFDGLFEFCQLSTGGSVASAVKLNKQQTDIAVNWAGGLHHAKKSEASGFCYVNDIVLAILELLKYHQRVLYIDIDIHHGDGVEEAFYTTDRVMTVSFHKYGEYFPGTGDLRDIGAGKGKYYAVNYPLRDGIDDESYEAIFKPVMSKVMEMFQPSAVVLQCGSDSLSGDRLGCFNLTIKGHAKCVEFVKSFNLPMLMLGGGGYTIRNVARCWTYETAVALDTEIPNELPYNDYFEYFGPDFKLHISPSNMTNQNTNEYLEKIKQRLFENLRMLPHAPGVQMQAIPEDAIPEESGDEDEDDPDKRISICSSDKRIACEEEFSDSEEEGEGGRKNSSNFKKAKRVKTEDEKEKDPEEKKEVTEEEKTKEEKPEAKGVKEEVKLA

[4] = target: T2, Phosphatidylinositol 4,5-bisphosphate 3-kinase catalytic subunit alpha isoform (Homo sapiens, UniProt P42336); assay: Inhibition of PI3Kalpha (unknown origin) expressed in baculovirus expression system using L-alpha-phosphatidylinositol as substrate by luminescence assay
T2 sequence (P42336 whole entry, canonical isoform): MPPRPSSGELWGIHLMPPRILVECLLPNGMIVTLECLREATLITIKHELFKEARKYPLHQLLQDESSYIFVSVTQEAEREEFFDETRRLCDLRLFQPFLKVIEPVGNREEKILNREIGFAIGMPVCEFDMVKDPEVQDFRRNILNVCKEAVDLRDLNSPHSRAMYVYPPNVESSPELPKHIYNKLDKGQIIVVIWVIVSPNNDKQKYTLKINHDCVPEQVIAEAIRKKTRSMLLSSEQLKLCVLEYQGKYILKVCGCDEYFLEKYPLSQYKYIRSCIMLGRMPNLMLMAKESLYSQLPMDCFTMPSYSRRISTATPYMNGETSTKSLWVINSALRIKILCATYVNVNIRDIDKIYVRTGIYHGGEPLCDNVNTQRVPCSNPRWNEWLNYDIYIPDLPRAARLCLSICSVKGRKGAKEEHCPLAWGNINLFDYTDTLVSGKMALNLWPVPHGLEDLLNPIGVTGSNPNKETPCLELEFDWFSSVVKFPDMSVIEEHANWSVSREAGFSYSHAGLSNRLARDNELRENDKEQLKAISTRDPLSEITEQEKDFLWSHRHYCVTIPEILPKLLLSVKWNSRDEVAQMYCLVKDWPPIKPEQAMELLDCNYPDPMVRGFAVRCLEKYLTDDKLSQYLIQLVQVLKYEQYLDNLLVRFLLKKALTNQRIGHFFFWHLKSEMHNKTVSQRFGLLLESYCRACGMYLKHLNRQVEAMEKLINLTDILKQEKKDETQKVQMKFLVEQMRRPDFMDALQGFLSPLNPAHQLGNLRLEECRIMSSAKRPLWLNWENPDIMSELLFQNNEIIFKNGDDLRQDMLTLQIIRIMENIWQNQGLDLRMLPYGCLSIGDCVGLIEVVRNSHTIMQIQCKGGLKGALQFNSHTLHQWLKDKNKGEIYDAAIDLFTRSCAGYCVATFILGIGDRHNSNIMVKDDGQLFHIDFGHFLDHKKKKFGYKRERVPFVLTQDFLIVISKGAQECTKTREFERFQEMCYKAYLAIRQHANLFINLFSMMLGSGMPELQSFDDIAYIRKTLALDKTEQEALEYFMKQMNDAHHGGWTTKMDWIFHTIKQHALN

[5] = Inhibition of PI3K (unknown origin); parameters: species or system Homo sapiens
[6] = Inhibition of mTORC1 (unknown origin); parameters: species or system Homo sapiens
[7] = target: T1, Phosphatidylinositol 4,5-bisphosphate 3-kinase catalytic subunit delta isoform; assay: Inhibition of full-length PI3Kdelta (unknown origin) expressed in baculovirus infected Sf9 cells by ADP-Glo luminescent kinase assay
[8] = target: Phosphatidylinositol 4,5-bisphosphate 3-kinase catalytic subunit beta isoform (Homo sapiens, UniProt P42338); assay: Inhibition of full-length PI3Kbeta (unknown origin) expressed in baculovirus infected Sf9 cells by ADP-Glo luminescent kinase assay
Sequence of Phosphatidylinositol 4,5-bisphosphate 3-kinase catalytic subunit beta isoform (P42338 whole entry, canonical isoform): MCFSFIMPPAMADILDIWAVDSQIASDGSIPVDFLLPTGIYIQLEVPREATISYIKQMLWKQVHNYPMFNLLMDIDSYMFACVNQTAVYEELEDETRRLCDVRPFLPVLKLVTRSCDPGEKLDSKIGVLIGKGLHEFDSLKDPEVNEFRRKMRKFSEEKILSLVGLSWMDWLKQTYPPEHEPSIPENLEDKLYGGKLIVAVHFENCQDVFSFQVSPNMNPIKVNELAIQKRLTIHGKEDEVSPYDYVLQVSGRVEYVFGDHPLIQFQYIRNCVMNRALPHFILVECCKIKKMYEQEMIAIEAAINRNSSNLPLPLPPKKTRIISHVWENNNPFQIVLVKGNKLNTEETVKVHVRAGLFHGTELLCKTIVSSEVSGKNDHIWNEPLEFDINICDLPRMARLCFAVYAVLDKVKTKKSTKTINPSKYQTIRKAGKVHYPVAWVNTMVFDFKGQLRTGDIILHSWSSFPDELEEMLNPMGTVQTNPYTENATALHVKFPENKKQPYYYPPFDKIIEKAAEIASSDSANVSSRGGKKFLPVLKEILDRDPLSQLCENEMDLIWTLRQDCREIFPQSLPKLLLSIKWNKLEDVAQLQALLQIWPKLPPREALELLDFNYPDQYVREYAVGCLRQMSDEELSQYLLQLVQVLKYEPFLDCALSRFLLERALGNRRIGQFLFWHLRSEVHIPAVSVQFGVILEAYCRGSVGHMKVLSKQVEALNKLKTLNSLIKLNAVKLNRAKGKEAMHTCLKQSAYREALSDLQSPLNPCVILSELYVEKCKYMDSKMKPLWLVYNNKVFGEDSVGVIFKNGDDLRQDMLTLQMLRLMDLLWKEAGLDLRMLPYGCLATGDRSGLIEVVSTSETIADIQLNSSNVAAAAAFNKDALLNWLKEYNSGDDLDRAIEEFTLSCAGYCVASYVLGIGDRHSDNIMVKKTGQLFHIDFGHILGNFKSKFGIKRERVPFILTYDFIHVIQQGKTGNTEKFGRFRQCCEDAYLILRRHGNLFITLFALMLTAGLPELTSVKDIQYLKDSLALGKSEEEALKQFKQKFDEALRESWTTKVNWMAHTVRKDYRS

[9] = target: T3, Polyamine deacetylase HDAC10 (Homo sapiens, UniProt Q969S8); assay: Inhibition of full-length HDAC10 (unknown origin) by Color-de-Lys assay
T3 sequence (Q969S8 whole entry): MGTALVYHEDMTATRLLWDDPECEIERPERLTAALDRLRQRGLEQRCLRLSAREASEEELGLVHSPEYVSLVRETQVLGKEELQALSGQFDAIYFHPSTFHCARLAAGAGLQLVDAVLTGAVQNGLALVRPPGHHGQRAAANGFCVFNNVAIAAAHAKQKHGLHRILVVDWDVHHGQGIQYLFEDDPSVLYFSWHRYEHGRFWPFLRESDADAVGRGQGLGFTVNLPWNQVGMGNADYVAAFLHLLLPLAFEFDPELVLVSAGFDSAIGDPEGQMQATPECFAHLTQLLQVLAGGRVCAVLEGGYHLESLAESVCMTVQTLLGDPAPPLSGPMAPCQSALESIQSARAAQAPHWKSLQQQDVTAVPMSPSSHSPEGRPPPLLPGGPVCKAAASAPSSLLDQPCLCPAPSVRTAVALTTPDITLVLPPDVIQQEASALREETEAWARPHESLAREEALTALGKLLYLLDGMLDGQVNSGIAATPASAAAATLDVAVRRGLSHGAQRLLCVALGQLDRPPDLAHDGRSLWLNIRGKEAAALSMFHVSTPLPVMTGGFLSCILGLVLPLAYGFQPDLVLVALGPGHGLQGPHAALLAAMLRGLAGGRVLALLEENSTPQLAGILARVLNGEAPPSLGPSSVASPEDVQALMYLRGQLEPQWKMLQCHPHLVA

[10] = target: T2, Phosphatidylinositol 4,5-bisphosphate 3-kinase catalytic subunit alpha isoform; assay: Inhibition of full-length PI3Kalpha (unknown origin) expressed in baculovirus infected Sf9 cells by ADP-Glo luminescent kinase assay
[11] = target: T4, Protein deacetylase HDAC6 (Homo sapiens, UniProt Q9UBN7); assay: Inhibition of full-length HDAC6 (unknown origin) by Color-de-Lys assay
T4 sequence (Q9UBN7 whole entry): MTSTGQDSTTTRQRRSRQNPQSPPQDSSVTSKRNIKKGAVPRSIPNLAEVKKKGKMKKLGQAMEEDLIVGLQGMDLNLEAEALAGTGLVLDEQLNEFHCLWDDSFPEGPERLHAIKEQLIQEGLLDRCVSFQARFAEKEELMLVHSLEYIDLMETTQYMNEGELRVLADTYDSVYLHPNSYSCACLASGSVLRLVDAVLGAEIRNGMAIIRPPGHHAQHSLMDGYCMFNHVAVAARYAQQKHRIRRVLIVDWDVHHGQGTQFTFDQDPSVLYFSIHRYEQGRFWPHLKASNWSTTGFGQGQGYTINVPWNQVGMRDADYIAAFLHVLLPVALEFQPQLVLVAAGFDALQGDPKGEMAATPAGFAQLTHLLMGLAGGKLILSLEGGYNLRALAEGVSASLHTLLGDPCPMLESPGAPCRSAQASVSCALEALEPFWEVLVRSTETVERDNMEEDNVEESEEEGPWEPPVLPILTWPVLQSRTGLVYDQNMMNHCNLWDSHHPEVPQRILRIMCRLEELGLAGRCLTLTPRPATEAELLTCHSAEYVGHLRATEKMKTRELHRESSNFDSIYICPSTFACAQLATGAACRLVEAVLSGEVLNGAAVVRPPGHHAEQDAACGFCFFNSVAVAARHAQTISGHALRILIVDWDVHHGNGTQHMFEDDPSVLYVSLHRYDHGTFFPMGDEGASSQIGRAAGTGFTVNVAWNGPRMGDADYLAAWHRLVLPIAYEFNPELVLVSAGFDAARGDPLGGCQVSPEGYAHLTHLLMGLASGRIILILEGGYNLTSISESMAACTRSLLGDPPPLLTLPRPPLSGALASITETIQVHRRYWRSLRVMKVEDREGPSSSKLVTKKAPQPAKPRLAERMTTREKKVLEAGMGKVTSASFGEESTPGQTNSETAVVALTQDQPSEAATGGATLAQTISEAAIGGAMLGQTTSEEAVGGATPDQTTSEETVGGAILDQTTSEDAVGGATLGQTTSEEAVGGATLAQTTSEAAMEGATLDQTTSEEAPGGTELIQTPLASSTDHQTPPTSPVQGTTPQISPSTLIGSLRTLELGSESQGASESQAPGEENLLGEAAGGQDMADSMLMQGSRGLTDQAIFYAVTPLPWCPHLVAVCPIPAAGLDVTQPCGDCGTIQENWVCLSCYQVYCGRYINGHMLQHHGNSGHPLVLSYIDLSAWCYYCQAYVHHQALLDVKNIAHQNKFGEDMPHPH

[12] = target: Phosphatidylinositol 4,5-bisphosphate 3-kinase catalytic subunit gamma isoform (Homo sapiens, UniProt P48736); assay: Inhibition of PI3Kgamma (unknown origin) expressed in baculovirus expression system using L-alpha-phosphatidylinositol as substrate by luminescence assay
Sequence of Phosphatidylinositol 4,5-bisphosphate 3-kinase catalytic subunit gamma isoform (P48736 whole entry, canonical isoform): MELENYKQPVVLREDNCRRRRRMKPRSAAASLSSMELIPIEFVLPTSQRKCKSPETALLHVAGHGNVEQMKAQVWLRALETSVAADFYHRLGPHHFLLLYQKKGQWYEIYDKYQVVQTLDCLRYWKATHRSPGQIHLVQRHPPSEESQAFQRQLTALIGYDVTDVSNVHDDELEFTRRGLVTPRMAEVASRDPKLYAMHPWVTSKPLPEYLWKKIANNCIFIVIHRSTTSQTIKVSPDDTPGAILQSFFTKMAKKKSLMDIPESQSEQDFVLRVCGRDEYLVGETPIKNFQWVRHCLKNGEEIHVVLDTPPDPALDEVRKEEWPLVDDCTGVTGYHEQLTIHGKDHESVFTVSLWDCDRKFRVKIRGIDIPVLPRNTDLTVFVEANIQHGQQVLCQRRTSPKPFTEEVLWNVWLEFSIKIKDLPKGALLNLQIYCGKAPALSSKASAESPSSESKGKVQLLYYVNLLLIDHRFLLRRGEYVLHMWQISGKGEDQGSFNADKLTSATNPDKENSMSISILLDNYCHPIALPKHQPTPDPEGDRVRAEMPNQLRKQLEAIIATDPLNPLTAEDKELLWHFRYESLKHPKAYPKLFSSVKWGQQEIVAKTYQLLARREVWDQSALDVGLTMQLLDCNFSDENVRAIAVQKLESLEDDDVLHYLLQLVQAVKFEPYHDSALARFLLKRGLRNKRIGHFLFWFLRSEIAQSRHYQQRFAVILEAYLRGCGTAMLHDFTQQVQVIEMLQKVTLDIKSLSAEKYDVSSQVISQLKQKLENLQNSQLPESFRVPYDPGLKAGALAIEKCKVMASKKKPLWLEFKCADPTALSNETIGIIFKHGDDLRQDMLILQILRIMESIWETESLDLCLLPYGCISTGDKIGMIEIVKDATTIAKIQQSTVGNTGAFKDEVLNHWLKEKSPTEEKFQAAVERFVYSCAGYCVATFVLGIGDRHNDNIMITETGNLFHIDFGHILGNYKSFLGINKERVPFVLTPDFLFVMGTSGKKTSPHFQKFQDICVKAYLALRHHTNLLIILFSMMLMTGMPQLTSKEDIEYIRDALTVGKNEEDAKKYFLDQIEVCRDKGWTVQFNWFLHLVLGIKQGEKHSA

[13] = target: T5, Mitogen-activated protein kinase; ERK1/ERK2 (Homo sapiens) (UniProt P27361+P28482); assay: Inhibition of Erk1/2 phosphorylation in human PANC-1 cells at 5 uM relative to control; assay type: cell-based
T5 sequence (P27361 whole entry, looked up): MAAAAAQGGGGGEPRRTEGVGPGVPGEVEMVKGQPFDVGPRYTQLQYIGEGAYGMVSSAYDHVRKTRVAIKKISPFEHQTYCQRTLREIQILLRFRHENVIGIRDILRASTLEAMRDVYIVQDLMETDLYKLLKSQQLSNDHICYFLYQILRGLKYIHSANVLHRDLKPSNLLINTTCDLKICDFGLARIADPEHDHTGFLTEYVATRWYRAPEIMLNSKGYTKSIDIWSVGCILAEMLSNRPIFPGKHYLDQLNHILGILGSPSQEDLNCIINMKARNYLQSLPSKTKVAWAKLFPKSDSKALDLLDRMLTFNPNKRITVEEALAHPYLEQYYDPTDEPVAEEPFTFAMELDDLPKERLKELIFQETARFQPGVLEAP
T5 sequence (P28482 whole entry, looked up): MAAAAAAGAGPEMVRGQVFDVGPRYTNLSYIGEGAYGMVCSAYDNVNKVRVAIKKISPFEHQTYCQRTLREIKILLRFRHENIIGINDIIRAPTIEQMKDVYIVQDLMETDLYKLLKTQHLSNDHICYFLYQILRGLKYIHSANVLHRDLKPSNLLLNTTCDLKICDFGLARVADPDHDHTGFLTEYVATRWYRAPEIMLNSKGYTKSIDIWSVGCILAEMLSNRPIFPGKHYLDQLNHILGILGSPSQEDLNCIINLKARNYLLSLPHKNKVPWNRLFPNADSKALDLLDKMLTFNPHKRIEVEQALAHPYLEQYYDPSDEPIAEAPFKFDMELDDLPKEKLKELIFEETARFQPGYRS

PANC-1 = assay: Anticancer activity against human PANC-1 cells assessed as cell killing activity at 25 uM relative to control; assay type: functional
[14] = target: T5, Mitogen-activated protein kinase; ERK1/ERK2 (Homo sapiens); assay: Inhibition of Erk1/2 phosphorylation in human A549 cells; assay type: cell-based; settings: concentration not given here
[15] = target: T2, Phosphatidylinositol 4,5-bisphosphate 3-kinase catalytic subunit alpha isoform; assay: Inhibition of PI3Kalpha (unknown origin)
A549 = assay: Anticancer activity against human A549 cells assessed as cell killing activity at 10 uM relative to control; assay type: functional

Compound: O=C(NOCCOCCOCCOCCN1CCN(c2nc(N3CCOCC3)nc(-n3c(C(F)F)nc4ccccc43)n2)CC1)c1ccc(F)c(F)c1Nc1ccc(I)cc1F
pIC50 [1]: 6.74

Compound: COc1ccc(-c2ccc3ncc4c(c3c2)n(-c2ccc(N3CCNCC3)c(C(F)(F)F)c2)c(=O)n4C)cn1 [BGT-226 FREE BASE]
pIC50 (KB): 8.13
pIC50 [2]: 8.13
pIC50 [3]: 7.42
pIC50 (SCC-4): 8.13

Compound: O=C(NO)c1ccc(/C=N/NC(=O)c2ccnc(-c3ccccc3)n2)cc1
pIC50 [11]: 7.73

Compound: Cc1c(Cc2cccc(N(C)S(=O)(=O)CCCNCCCCCC(=O)N3CCN(c4nc(N5CCOCC5)nc(-n5c(C(F)F)nc6ccccc65)n4)CC3)c2)c(=O)oc2cc(OC(=O)N(C)C)ccc12
inhibition [13]: 35%
inhibition at 25 µM (PANC-1): 50%
inhibition [14]: 35%
pIC50 [15]: 6.76
inhibition at 10 µM (A549): 50%

Further lines, results first:

pIC50 (Histone deacetylase 1): 8.89
pIC50 [4]: 6.65
Compound: COc1ncc(-c2cc(OCCN(C)c3ncc(C(=O)NO)cn3)c3nc(N)nc(C)c3c2)cc1C

pIC50 (Histone deacetylase 1): 8.53
pIC50 [4]: 7.30
Compound: COc1c(OCCCCCC(=O)NO)ccc2c1N=C(NC(=O)c1ccccc1)N1CCN=C21

pIC50 [5]: 9.52
pIC50 [6]: 10.40
Compound: COc1ncc(-c2ccc3nccc(-c4ccnnc4)c3c2)cc1NS(=O)(=O)c1ccc(F)cc1F [OMIPALISIB]

pIC50 [7]: 7.41
pIC50 [8]: 7.27
pIC50 [9]: 8.55
pIC50 [10]: 7.72
Compound: Cn1cc(CNCC2CCN(c3ncc(C(=O)NO)cn3)CC2)c2ccccc21 [QUISINOSTAT]

pIC50 [3]: 8.05
pIC50 [12]: 7.37
Compound: CCn1c(=O)c(-c2cc[nH]n2)cc2c(C)nc(N)nc21 [VOXTALISIB]

pIC50 (Histone deacetylase 1): 8.85
pIC50 [4]: 7.38
Compound: COc1ncc(-c2cc(OCCCCCCC(=O)NO)c3nc(N)nc(C)c3c2)cc1F
